Laboratory results: the NIST ThermoML archive (doi:10.1021/je301132p)

Experiment: mn = molality of the nth substance listed, in mol/kg
Details: Liquid, Vibrating tube method

O=C([O-])O.[Na+] [sodium bicarbonate] + O
mass density [kg/m3]
Details	1100 kPa	10100 kPa	20100 kPa	30100 kPa	40100 kPa	50100 kPa	60100 kPa	68600 kPa
373.12 K, m1 = 1	–	–	–	–	–	–	–	1038.44
398.08 K, m1 = 0.507	967.23	971.5	976.19	980.67	985.06	989.37	993.56	996.98
398.08 K, m1 = 1	992.49	996.59	1001.1	1005.36	1009.57	1013.71	1017.88	1021.02
423.07 K, m1 = 0.507	945.6	950.33	955.52	960.51	965.22	969.93	974.48	978.13
423.07 K, m1 = 1	971.16	975.62	980.58	985.4	989.89	994.52	998.85	1002.43
448.03 K, m1 = 0.507	921.6	926.98	932.57	938.23	943.62	948.68	953.67	957.69
448.03 K, m1 = 1	947.75	952.76	958.38	963.67	968.83	973.77	978.58	982.48
473.02 K, m1 = 0.507	–	900.8	907.44	913.71	919.81	925.55	931	935.54
473.02 K, m1 = 1	–	927.94	934.21	940.3	946.08	951.65	956.83	961.25
